# Source: patent EP4678638A1, “NEW E3 UBIQUITIN LIGASE LIGAND, PROTEIN DEGRADATION AGENT AND USE THEREOF” (priority 2023, dated 2024)
# Assays:
# [1] = target: T1, human Cereblon WT GST-tagged protein (Homo sapiens, UniProt Q96SW2); assay: CRBN binding, HTRF (CEREBLON BINDING kit); details: Table II-2, CRBN binding screening, HTRF; for inhibition at 0.5 µM: read-out: Inhibition rate (%) at 0.5µM; for inhibition at 2 µM: read-out: Inhibition rate (%) at 2 µM
# T1 construct: purchased CISBIO 64BDCRBNPEH
# T1 sequence (Q96SW2 whole entry): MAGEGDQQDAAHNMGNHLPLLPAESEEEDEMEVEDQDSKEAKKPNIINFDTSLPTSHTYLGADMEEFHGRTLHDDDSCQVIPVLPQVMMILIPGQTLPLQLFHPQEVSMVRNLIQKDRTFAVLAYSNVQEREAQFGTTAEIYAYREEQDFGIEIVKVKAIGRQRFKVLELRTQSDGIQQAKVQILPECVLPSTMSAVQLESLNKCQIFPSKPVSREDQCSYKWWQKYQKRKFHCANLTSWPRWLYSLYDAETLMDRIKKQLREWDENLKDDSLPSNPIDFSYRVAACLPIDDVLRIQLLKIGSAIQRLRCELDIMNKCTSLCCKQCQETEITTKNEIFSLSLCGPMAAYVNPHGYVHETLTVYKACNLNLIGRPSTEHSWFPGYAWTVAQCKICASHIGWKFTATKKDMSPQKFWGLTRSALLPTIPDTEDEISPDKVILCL
# How it was run: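 After 3 h at room temperature, emission at 665 and 620 nm was measured in a homogeneous time-resolved fluorescence format. Compounds competed with a Thalidomide-Re probe for GST-tagged wild-type human CRBN, which was labelled with a Eu anti-GST antibody.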
# IRAK4 = target: T2, IRAK4 (Homo sapiens, UniProt Q9NWZ3); assay: Western blot degradation of IRAK4 (hPBMC); assay type: cell-based; details: Table D1
# T2 construct: evaluate the effects of the compounds of the present disclosure on the expression of target proteins in cells; endogenous in cells; host or cells: hPBMC
# T2 sequence (Q9NWZ3 1-460): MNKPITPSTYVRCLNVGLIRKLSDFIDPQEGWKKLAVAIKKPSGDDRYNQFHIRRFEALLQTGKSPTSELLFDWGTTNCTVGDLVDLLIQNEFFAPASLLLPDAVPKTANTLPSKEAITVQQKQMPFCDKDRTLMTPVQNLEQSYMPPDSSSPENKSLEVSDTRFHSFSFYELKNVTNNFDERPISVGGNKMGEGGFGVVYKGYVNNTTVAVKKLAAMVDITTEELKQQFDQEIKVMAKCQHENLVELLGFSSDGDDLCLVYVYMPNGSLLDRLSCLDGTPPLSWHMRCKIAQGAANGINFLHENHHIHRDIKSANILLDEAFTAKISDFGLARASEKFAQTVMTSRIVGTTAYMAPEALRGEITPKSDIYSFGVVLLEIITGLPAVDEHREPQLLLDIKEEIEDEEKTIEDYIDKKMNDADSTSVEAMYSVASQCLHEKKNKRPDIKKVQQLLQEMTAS
# Description: Conventional Western blot assay was performed to evaluate the effects of the compounds of the present disclosure on the expression of target proteins in cells.
# (1) Cell Seeding and Protein Harvesting: The selected cells were processed according to the cell seeding procedure and protein harvesting procedure in Table III-2. Table III-2 Cell Seeding and Protein Harvesting Procedures
# (2) To the collected supernatant, 5X SDS sample loading buffer was added, followed by denaturation at 95°C for 5 minutes. The denatured samples were then separated by SDS-PAGE electrophoresis on a polyacrylamide gel. Proteins were transferred to a nitrocellulose membrane (0.45 µm NC membrane), blocked with blocking buffer at room temperature for 1 hour, and subjected to antibody incubation and development procedures according to the antibody manufacturer's instructions (Cell Signaling Technology).
# Half-Maximal Degradation Concentration value (the drug concentration required for degrading proteins by 50%, abbreviated as DC50) reads method: comparing the grayscale values of Western blot bands from drug-treated samples with those from blank DMSO-treated controls, and identifying the drug concentration range at which the grayscale value is half that of the DMSO-treated control bands.
# DC50 values can be calculated using ImageJ software to measure grayscale values of Western blot bands from drug-treated samples. The concentration-response curve is fitted to estimate the drug concentration corresponding to half the grayscale value.
# Target protein remaining (%) refers to the percentage of target protein remaining in hPBMC cells after treatment with protein degrader compounds.
# Calculation method for target protein remaining (%): Use ImageJ software to measure grayscale values of Western blot bands from drug (protein degrader)-treated samples. The grayscale value of drug-treated bands is divided by that of internal control protein bands, and the resulting quotient is normalized to obtain the relative percentage of remaining target protein after protein degrader treatment.
# Target protein degradation rate (%) = 100% - target protein remaining (%).
SMILES,Degradation of substrate protein IRAK4 (substrate protein remaining %) (IRAK4),further results
"CC(C)(O)c1cc2nc(C3CCN(Cc4ccc(C5CCC(=O)NC5=O)cn4)CC3)sc2cc1NC(=O)c1cccc(C(F)(F)F)n1 (stereo not shown) [GT-07623, N-(2-(1-((5-(2,6-dioxopiperidin-3-yl)pyridin-2-yl)methyl)piperidin-4-yl)-5-(2-hydroxypropan-2-yl)benzo[d]thiazol-6-yl)-6-(trifluoromethyl)picolinamide]",A (A is defined as 0% ≤ substrate protein remaining % ≤ 80%),Inhibition rate (%) at 0.5µM ([1]; at 0.5µM): a2 (20% < a2 ≤ 30%); Inhibition rate (%) at 2 µM ([1]; at 2 µM): a6 (60% < a6 ≤ 80%)
"CC(C)(O)c1cc2nc(C3CCN(Cc4cncc(N5CCC(=O)NC5=O)c4)CC3)oc2cc1NC(=O)c1cccc(C(F)(F)F)n1 [GT-07628, N-(2-(1-((5-(2,4-dioxotetrahydropyrimidin-1(2H)-yl)pyridin-3-yl)methyl)piperidin-4-yl)-5-(2-hydroxypropan-2-yl)benzo[d]oxazol-6-yl)-6-(trifluoromethyl)picolinamide]",A (A is defined as 0% ≤ substrate protein remaining % ≤ 80%),inhibition at 0.5 µM ([1]; at 0.5µM): 20 to 30%; inhibition at 2 µM ([1]; at 2 µM): 60 to 80%
"CC(C)(O)c1cc2nn(C3CCN(Cc4ccnc(C5CCC(=O)NC5=O)c4)CC3)cc2cc1NC(=O)c1cccc(C(F)(F)F)n1 (stereo not shown) [GT-07542, N-(2-(1-((2-(2,6-dioxopiperidin-3-yl)pyridin-4-yl)methyl)piperidin-4-yl)-6-(2-hydroxypropan-2-yl)-2H-indazol-5-yl)-6-(trifluoromethyl)picolinamide]",A (A is defined as 0% ≤ substrate protein remaining % ≤ 80%),inhibition at 0.5 µM ([1]; at 0.5µM): 30 to 40%; inhibition at 2 µM ([1]; at 2 µM): 60 to 80%
"COc1cc2nn(C3CCN(Cc4cccc(NC5CCC(=O)NC5=O)c4)CC3)cc2cc1NC(=O)c1cccc(C(F)(F)F)n1 (stereo not shown) [GT-04763, N-(2-(1-(3-((2,6-dioxopiperidin-3-yl)amino)benzyl)piperidin-4-yl)-6-methoxy-2H-indazol-5-yl)-6-(trifluoromethyl)picolinamide]",A (A is defined as 0% ≤ substrate protein remaining % ≤ 80%),
"COc1cc2nn(C3CCN(Cc4cncc(N5CCC(=O)NC5=O)c4)CC3)cc2cc1NC(=O)c1cccc(C(F)(F)F)c1 [GT-07416, N-(2-(1-((5-(2,4-dioxotetrahydropyrimidin-1(2H)-yl)pyridin-3-yl)methyl)piperidin-4-yl)-6-methoxy-2H-indazol-5-yl)-3-(trifluoromethyl)benzamide]",A (A is defined as 0% ≤ substrate protein remaining % ≤ 80%),
"O=C1CCN(c2cccc(CN3CCC(n4cc(NC(=O)c5cnn6ccc(N7CCOCC7)nc56)c(C(F)F)n4)CC3)c2)C(=O)N1 [GT-04177, N-(3-(difluoromethyl)-1-(1-(3-(2,4-dioxotetrahydropyrimidin-1(2H)-yl)benzyl)piperidin-4-yl)-1H-pyrazol-4-yl)-5-morpholinopyrazolo[1,5-a]pyrimidine-3-carboxamide]",A (A is defined as 0% ≤ substrate protein remaining % ≤ 80%),
"CC(C)Nc1cc(-n2ccc3cc(C#N)cnc32)ncc1C(=O)NC1CCN(Cc2cncc(N3CCC(=O)NC3=O)c2)CC1 [GT-07410, 6-(5-cyano-1H-pyrrolo[2,3-b]pyridin-1-yl)-N-(1-((5-(2,4-dioxotetrahydropyrimidin-1(2H)-yl)pyridin-3-yl)methyl)piperidin-4-yl)-4-(isopropylamino)nicotinamide]",A (A is defined as 0% ≤ substrate protein remaining % ≤ 80%),
"COc1ccc2cn(C3CCN(Cc4ccc(N5CCC(=O)NC5=O)nc4)CC3)nc2c1NC(=O)c1cccc(C(F)(F)F)c1 [GT-04887, N-(2-(1-((6-(2,4-dioxotetrahydropyrimidin-1(2H)-yl)pyridin-3-yl)methyl)piperidin-4-yl)-6-methoxy-2H-indazol-7-yl)-3-(trifluoromethyl)benzamide]",A (A is defined as 0% ≤ substrate protein remaining % ≤ 80%),
"COc1cc2nn(C3CCN(Cc4ccnc(N5CCC(=O)NC5=O)c4)CC3)cc2cc1NC(=O)c1cccc(C(F)(F)F)c1 [GT-07415, N-(2-(1-((2-(2,4-dioxotetrahydropyrimidin-1(2H)-yl)pyridin-4-yl)methyl)piperidin-4-yl)-6-methoxy-2H-indazol-5-yl)-3-(trifluoromethyl)benzamide]",A (A is defined as 0% ≤ substrate protein remaining % ≤ 80%),
"CC(C)Nc1cc(-n2ccc3cc(C#N)cnc32)ncc1C(=O)NC1CCN(Cc2cccnc2C2CCC(=O)NC2=O)CC1 (stereo not shown) [GT-07546, 6-(5-cyano-1H-pyrrolo[2,3-b]pyridin-1-yl)-N-(1-((2-(2,6-dioxopiperidin-3-yl)pyridin-3-yl)methyl)piperidin-4-yl)-4-(isopropylamino)nicotinamide]",A (A is defined as 0% ≤ substrate protein remaining % ≤ 80%),
"CC(C)(O)c1cc2nc(C3CCN(Cc4ccnc(N5CCC(=O)NC5=O)c4)CC3)oc2cc1NC(=O)c1cccc(C(F)(F)F)n1 [GT-07627, N-(2-(1-((2-(2,4-dioxotetrahydropyrimidin-1(2H)-yl)pyridin-4-yl)methyl)piperidin-4-yl)-5-(2-hydroxypropan-2-yl)benzo[d]oxazol-6-yl)-6-(trifluoromethyl)picolinamide]",A (A is defined as 0% ≤ substrate protein remaining % ≤ 80%),
"CC(C)(O)c1cc2nc(C3CCN(Cc4cccnc4C4CCC(=O)NC4=O)CC3)sc2cc1NC(=O)c1cccc(C(F)(F)F)n1 (stereo not shown) [GT-07625, N-(2-(1-((2-(2,6-dioxopiperidin-3-yl)pyridin-3-yl)methyl)piperidin-4-yl)-5-(2-hydroxypropan-2-yl)benzo[d]thiazol-6-yl)-6-(trifluoromethyl)picolinamide]",A (A is defined as 0% ≤ substrate protein remaining % ≤ 80%),
"CC(C)(O)c1cc2nc(C3CCN(Cc4ccc(C5CCC(=O)NC5=O)cc4)CC3)oc2cc1NC(=O)c1cccc(C(F)(F)F)n1 (stereo not shown) [GT-05771, N-(2-(1-(4-(2,6-dioxopiperidin-3-yl)benzyl)piperidin-4-yl)-5-(2-hydroxypropan-2-yl)benzo[d]oxazol-6-yl)-6-(trifluoromethyl)picolinamide]",A (A is defined as 0% ≤ substrate protein remaining % ≤ 80%),
"COc1cc2nn(C3CCN(Cc4ccc(N5CCC(=O)NC5=O)cc4)CC3)cc2cc1NC(=O)c1cccc(C(F)(F)F)c1 [GT-04752, N-(2-(1-(4-(2,4-dioxotetrahydropyrimidin-1(2H)-yl)benzyl)piperidin-4-yl)-6-methoxy-2H-indazol-5-yl)-3-(trifluoromethyl)benzamide]",A (A is defined as 0% ≤ substrate protein remaining % ≤ 80%),
"CC(C)(O)c1cc2nc(C3CCN(Cc4cccnc4C4CCC(=O)NC4=O)CC3)oc2cc1NC(=O)c1cccc(C(F)(F)F)n1 (stereo not shown) [GT-07631, N-(2-(1-((2-(2,6-dioxopiperidin-3-yl)pyridin-3-yl)methyl)piperidin-4-yl)-5-(2-hydroxypropan-2-yl)benzo[d]oxazol-6-yl)-6-(trifluoromethyl)picolinamide]",A (A is defined as 0% ≤ substrate protein remaining % ≤ 80%),
"CC(C)(O)c1cc2nc(C3CCN(Cc4ccnc(N5CCC(=O)NC5=O)c4)CC3)sc2cc1NC(=O)c1cccc(C(F)(F)F)n1 [GT-07619, N-(2-(1-((2-(2,4-dioxotetrahydropyrimidin-1(2H)-yl)pyridin-4-yl)methyl)piperidin-4-yl)-5-(2-hydroxypropan-2-yl)benzo[d]thiazol-6-yl)-6-(trifluoromethyl)picolinamide]",A (A is defined as 0% ≤ substrate protein remaining % ≤ 80%),
